Consider 53 compounds from the supplement of paper PMC11997997.

Assay [1] concerns Mycobacterium tuberculosis CDC1551 (intracellular, in murine BMDM). Nature of the assay: area under intracellular growth-inhibition dose-response curve (AUC (% inhibition x dose, relative)); higher = more potent. The conditions noted are these: duration: 6 days; dose range: 0.13-80 uM, 8 points. Summed up: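 Luciferase-expressing M. tuberculosis CDC1551 was used at multiplicity of infection 1 for 1 h to infect primary murine bone marrow-derived macrophages in 384-well opaque plates, 24 h after seeding. Treatment followed for 6 days with an 8-dose, 2.5-fold series at final concentrations of 80–0.13 μM. GraphPad Prism was used to calculate the area under the growth-inhibition dose–response curve from Bright-Glo luciferin readings normalised to a reference drug control and the lowest-concentration wells.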

The subject of assay [2] is murine bone marrow-derived macrophages. Nature of the assay: area under cytotoxicity dose-response curve (AUC (% cytotoxicity x dose, relative)); higher = more cytotoxic. The following applies: duration: 6 days; dose range: 0.13-80 uM, 8 points. Summed up: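 Cytotoxicity is given as the area under the dose–response curve, computed in GraphPad Prism version 10. Primary murine bone marrow-derived macrophages in opaque 384-well plates received an 8-point, 2.5-fold dilution series (final 80–0.13 μM) for 6 days at 37 °C in 5% CO2. Viability was measured by Promega's CellTiter-Glo luminescence assay, with percent cytotoxicity normalised to vehicle and positive control wells.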

Regarding `CC(C(=O)NC1C(=O)N2C(C(=O)O)=C(CSc3nnnn3C)CSC12)n1cc(Cl)cn1` (stereo unspecified), in assay [1], the “area under intracellular growth-inhibition dose-response curve” value worked out at 174. Also, the “area under cytotoxicity dose-response curve” value in assay [2] came to 23.7.
In the case of `CC1CCN(C(=O)C2CCN(c3ncnc4c3nc3n4CCCCC3)CC2)CC1`, the “area under intracellular growth-inhibition dose-response curve” value in assay [1] was 176. Moreover, the “area under cytotoxicity dose-response curve” value in assay [2] is 35.4.
In the same order, the values of `Cc1cccc(C)c1-n1c(C)cc(/C=N/NC(=O)c2ccncc2)c1C` are 252 and 32.2.
As for `CCOc1c2c(nc3ccc(Cl)cc13)CCC2`, in assay [1], the “area under intracellular growth-inhibition dose-response curve” value was determined as 157. Further, in assay [2], the “area under cytotoxicity dose-response curve” value stood at 57.1.
`CCCOc1ccccc1OCC(=O)N1CCN(S(=O)(=O)c2ccc(Cl)cc2)CC1`: the “area under intracellular growth-inhibition dose-response curve” value in assay [1] came out at 48.8. The “area under cytotoxicity dose-response curve” value in assay [2] turned out to be 126.
Turning to `CCOc1c(Cl)cc(/C=N/NC(N)=S)cc1OC`, the “area under intracellular growth-inhibition dose-response curve” value in assay [1] turned out to be 266. The “area under cytotoxicity dose-response curve” value in assay [2] is under 0.
As for `COc1c(/C=N/NC(N)=S)c(C)nn1-c1ccccc1`, the “area under intracellular growth-inhibition dose-response curve” value in assay [1] stood at 194. Also, the “area under cytotoxicity dose-response curve” value in assay [2] was found to be 32.6.
For `CN(CC(=O)Nc1ccccc1Br)C(=O)c1ccccc1Sc1ccccc1C#N`, the “area under intracellular growth-inhibition dose-response curve” value in assay [1] was determined as 45.3. The “area under cytotoxicity dose-response curve” value in assay [2] was 24.4.
Regarding `CCc1cccc2sc(N3CCN(C(=O)c4ccc([N+](=O)[O-])o4)CC3)nc12`, the “area under intracellular growth-inhibition dose-response curve” value in assay [1] was determined as 71.9. Further, the “area under cytotoxicity dose-response curve” value in assay [2] turned out to be 85.8.
Regarding `S=C(Nc1ccccc1)Nc1ccc(OCc2ccccc2)cc1`, the “area under intracellular growth-inhibition dose-response curve” value in assay [1] is 272. For the same compound, the “area under cytotoxicity dose-response curve” value in assay [2] is under 0.
Take `c1ccc(-c2noc(CC3CCCCC3)n2)nc1`: in assay [1], the “area under intracellular growth-inhibition dose-response curve” value came out at 200. For the same compound, the “area under cytotoxicity dose-response curve” value in assay [2] came out at 5.13.
Take `COc1ccccc1N1C(C)=CC(=Cc2sc3ccccc3[n+]2C)C=C1C.[I-]`: the “area under intracellular growth-inhibition dose-response curve” value in assay [1] was 119. The “area under cytotoxicity dose-response curve” value in assay [2] is 25.9.
In the case of `CCc1ccc(C(=O)/C=C/c2ccc([N+](=O)[O-])o2)cc1`, the “area under intracellular growth-inhibition dose-response curve” value in assay [1] amounted to 142. The “area under cytotoxicity dose-response curve” value in assay [2] turned out to be 5.66.
The matching figures for `O=[N+]([O-])c1ccc(/C=N/Nc2nc(N3CCCC3)nc(N3CCCC3)n2)o1`: 168 and 171.
For the compound `CCc1ccc(NC(=O)NC2CCCCCCC2)cc1`, the “area under intracellular growth-inhibition dose-response curve” value in assay [1] amounted to 120. For the same compound, the “area under cytotoxicity dose-response curve” value in assay [2] stood at 85.4.
Turning to `Nc1ccc(C(=O)[O-])c(O)c1.O.[Na+]`, the “area under intracellular growth-inhibition dose-response curve” value in assay [1] came to 184. Further, the “area under cytotoxicity dose-response curve” value in assay [2] is 0.704.
The matching figures for `OC(CCCC(O)c1ccccc1)c1ccccc1` (stereo unspecified): 203 and 31.6.
Consider `C=CCN1/C(=C/c2ccc3cc(C)ccc3[n+]2CC)C=Cc2ccccc21.[Br-]`, for which the “area under intracellular growth-inhibition dose-response curve” value in assay [1] was 102. Further, in assay [2], the “area under cytotoxicity dose-response curve” value was 86.8.
In the case of `CC1CCCN(C(=O)C2CCC(CNc3c(N4CCCCC4)c(=O)c3=O)CC2)C1` (stereo unspecified), in assay [1], the “area under intracellular growth-inhibition dose-response curve” value amounted to 91.7. In addition, in assay [2], the “area under cytotoxicity dose-response curve” value turned out to be 8.75.
In the case of `C[n+]1c(-c2ccccc2)c2cc(N)ccc2c2ccc(N)cc21.[Br-]`, the “area under intracellular growth-inhibition dose-response curve” value in assay [1] turned out to be 59.8. The “area under cytotoxicity dose-response curve” value in assay [2] was found to be 30.1.
Take `Nc1ccc(S(=O)(=O)Nc2cnc3ccccc3n2)cc1`: in assay [1], the “area under intracellular growth-inhibition dose-response curve” value worked out at 156. In assay [2], the “area under cytotoxicity dose-response curve” value is under 0.
As for `CCc1ccc(C(C)NC(=O)c2cccs2)cc1` (stereo unspecified), the “area under intracellular growth-inhibition dose-response curve” value in assay [1] was found to be 123. In addition, the “area under cytotoxicity dose-response curve” value in assay [2] stood at 120.
On to `COc1sc(SC)cc1/C=N/NC(=O)c1ccncc1`, for which the “area under intracellular growth-inhibition dose-response curve” value in assay [1] worked out at 176. For the same compound, the “area under cytotoxicity dose-response curve” value in assay [2] was found to be 26.8.
The matching figures for `COc1cc(/C=N/NC(N)=S)ccc1OCc1ccc(C)cc1`: 255 and 30.4.
As to `O=C(OCC(=O)c1ccc(Cl)cc1Cl)c1ccccn1`, the “area under intracellular growth-inhibition dose-response curve” value in assay [1] was 205. Moreover, the “area under cytotoxicity dose-response curve” value in assay [2] stood at 10.1.
As to `Cl.c1ccc(-c2nc(NCCCn3ccnc3)c3oc4ccccc4c3n2)cc1`, the “area under intracellular growth-inhibition dose-response curve” value in assay [1] came to 172. Also, the “area under cytotoxicity dose-response curve” value in assay [2] is 34.7.
On to `Cc1ccc(C2(C)NC(=O)N(CC(=O)N3c4ccccc4NC(=O)CC3C)C2=O)cc1` (stereo unspecified), for which the “area under intracellular growth-inhibition dose-response curve” value in assay [1] is 36.2. Also, the “area under cytotoxicity dose-response curve” value in assay [2] was 3.65.
Turning to `COc1cccc2sc(N3CCN(C(=O)c4ccc([N+](=O)[O-])o4)CC3)nc12`, in assay [1], the “area under intracellular growth-inhibition dose-response curve” value was determined as 6.52. Moreover, in assay [2], the “area under cytotoxicity dose-response curve” value was 57.3.
For `CCC(CO)NCCNC(CC)CO` (stereo unspecified), the “area under intracellular growth-inhibition dose-response curve” value in assay [1] amounted to 154. Further, the “area under cytotoxicity dose-response curve” value in assay [2] was determined as 88.1.
With `COc1ccc(OCC(=O)NC(=S)Nc2ccc(N3CCOCC3)c(Cl)c2)cc1`, the “area under intracellular growth-inhibition dose-response curve” value in assay [1] is 173. The “area under cytotoxicity dose-response curve” value in assay [2] was 123.
With `CCOc1ccc(-c2c(C)[n+](-c3ccc(OCC)cc3)c3n2CCCCC3)cc1.[O-][Cl+3]([O-])([O-])[O-]`, the “area under intracellular growth-inhibition dose-response curve” value in assay [1] came out at 57.1. For the same compound, the “area under cytotoxicity dose-response curve” value in assay [2] was determined as 8.93.
The matching figures for `O=C(NC1CCCCCCC1)c1ccc(F)cc1`: 180 and 16.9.
Regarding `O=C(CCN1C(=O)S/C(=C/c2ccccc2)C1=O)Nc1ccc(C(=O)O)c(O)c1`, the “area under intracellular growth-inhibition dose-response curve” value in assay [1] came to 117. Moreover, the “area under cytotoxicity dose-response curve” value in assay [2] was 156.
In the case of `COc1ccc(OC)c2nc3c(cc12)CCC3`, the “area under intracellular growth-inhibition dose-response curve” value in assay [1] was found to be 211. Moreover, the “area under cytotoxicity dose-response curve” value in assay [2] came out at 23.1.
The matching figures for `CSCCC(NC(=O)c1ccccc1Br)C(=O)NNC(=O)c1ccncc1` (stereo unspecified): 244 and 12.7.
Consider `Cc1c(Cl)cnn1CC(=O)NC1C(=O)N2C(C(=O)O)=C(CSc3nnnn3C)CSC12` (stereo unspecified), for which the “area under intracellular growth-inhibition dose-response curve” value in assay [1] was 168. Further, the “area under cytotoxicity dose-response curve” value in assay [2] is 18.6.
As for `CCOC(=O)c1ccccc1NC(=O)c1c(F)c(F)c(F)c(F)c1F`, the “area under intracellular growth-inhibition dose-response curve” value in assay [1] was found to be 183. Moreover, the “area under cytotoxicity dose-response curve” value in assay [2] was under 0.
`CC(=O)NC(=S)Nc1ccc(NC(=O)COc2ccc(Cl)cc2Cl)cc1`: the “area under intracellular growth-inhibition dose-response curve” value in assay [1] came out at 220. Further, in assay [2], the “area under cytotoxicity dose-response curve” value came to 38.6.
In the case of `Cc1nn(-c2ccccc2)cc1/C=N/NC(N)=S`, the “area under intracellular growth-inhibition dose-response curve” value in assay [1] came out at 274. Moreover, in assay [2], the “area under cytotoxicity dose-response curve” value was determined as 24.4.
As for `Cc1cc(Cl)ccc1OCCCC(=O)NNC(=O)c1ccncc1`, the “area under intracellular growth-inhibition dose-response curve” value in assay [1] was 271. The “area under cytotoxicity dose-response curve” value in assay [2] is under 0.
For the compound `NC(=S)N/N=C/c1ccc(-c2ccc([N+](=O)[O-])cc2)o1`, the “area under intracellular growth-inhibition dose-response curve” value in assay [1] was determined as 217. For the same compound, in assay [2], the “area under cytotoxicity dose-response curve” value was under 0.
On to `CC1CCCCC1NC(=O)c1cc2ccccc2o1` (stereo unspecified), for which the “area under intracellular growth-inhibition dose-response curve” value in assay [1] came to 258. In addition, the “area under cytotoxicity dose-response curve” value in assay [2] came out at 32.6.
For the compound `Clc1cnc(N/N=C/c2ccco2)c(Cl)c1`, in assay [1], the “area under intracellular growth-inhibition dose-response curve” value is 189. Also, the “area under cytotoxicity dose-response curve” value in assay [2] was determined as 93.8.
For `O=C(c1ccc([N+](=O)[O-])o1)N(Cc1nnc(-c2ccccc2Cl)o1)C1CC1`, in assay [1], the “area under intracellular growth-inhibition dose-response curve” value worked out at 192. Further, the “area under cytotoxicity dose-response curve” value in assay [2] came to 41.5.
In the same order, the values of `Cc1nc(SCC(=O)NC2CCCCC2)nc(O)c1C` are 30.2 and 17.5.
Consider `CCCC12CN3CCN(CC(C3)/C1=N\NC(=O)c1ccncc1)C2`, for which the “area under intracellular growth-inhibition dose-response curve” value in assay [1] worked out at 233. For the same compound, the “area under cytotoxicity dose-response curve” value in assay [2] was found to be 28.1.
Regarding `O=C(c1ccc2ccccc2c1)N1CCCC1`, in assay [1], the “area under intracellular growth-inhibition dose-response curve” value was determined as 222. Also, the “area under cytotoxicity dose-response curve” value in assay [2] amounted to 32.9.
As for `Cc1cc(NC(=O)c2ccc([N+](=O)[O-])o2)ccc1NC(=O)c1ccco1`, the “area under intracellular growth-inhibition dose-response curve” value in assay [1] is 63.8. Moreover, the “area under cytotoxicity dose-response curve” value in assay [2] is 88.8.
For `CCOc1ccc2oc(C(=O)OCC(=O)N3C(C)CCCC3C)c(C)c2c1` (stereo unspecified), in assay [1], the “area under intracellular growth-inhibition dose-response curve” value was 5.04. The “area under cytotoxicity dose-response curve” value in assay [2] worked out at 105.
The matching figures for `COc1cc(/C=N/NC(N)=S)ccc1OCC(=O)Nc1ccc(C)c(C)c1`: 242 and 10.1.
In the case of `C/C(=N\NC(N)=S)c1ccc(-n2ccnc2)cc1`, in assay [1], the “area under intracellular growth-inhibition dose-response curve” value came to 195. Further, the “area under cytotoxicity dose-response curve” value in assay [2] was determined as 69.
For the compound `C[C@H]1c2cccc(O)c2C(=O)C2C(=O)C3(O)C(=O)C(C(N)=O)C(=O)[C@@H](N(C)C)[C@@H]3[C@@H](O)[C@@H]21.Cl` (stereo partly specified), the “area under intracellular growth-inhibition dose-response curve” value in assay [1] amounted to 259. Moreover, the “area under cytotoxicity dose-response curve” value in assay [2] came out at 33.4.
For `COc1ccc(CCNC(=O)c2cc(-c3ccccn3)nc3ccccc23)cc1`, the “area under intracellular growth-inhibition dose-response curve” value in assay [1] turned out to be 40.6. Also, in assay [2], the “area under cytotoxicity dose-response curve” value is 17.5.
